In the supplement of paper PMC10307832:

Legend:
Test in all cases: relative viability (nuclei count vs DMSO), 5 days (fraction); higher = more cells survive
Bortezomib + Navitoclax = compound: CC(C)C[C@H](NC(=O)[C@H](Cc1ccccc1)NC(=O)c1cnccn1)B(O)O [Bortezomib] + CC1(C)CCC(c2ccc(Cl)cc2)=C(CN2CCN(c3ccc(C(=O)NS(=O)(=O)c4ccc(N[C@H](CCN5CCOCC5)CSc5ccccc5)c(S(=O)(=O)C(F)(F)F)c4)cc3)CC2)C1 [Navitoclax] (partner 0.5 µM)
How it was run: (§1)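 Medians of duplicate plates are given as relative viability. That measure is the nuclei count in treated wells divided by the count in vehicle wells. Counts were taken on 4× images of lung cancer cell lines in 1536-well plates, 5 days after pin-tool dosing the day after seeding with one drug alone or a fixed anchor-drug dose plus five library-drug doses (not always all listed) in √10 steps.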

Bortezomib + Decitabine = compound: CC(C)C[C@H](NC(=O)[C@H](Cc1ccccc1)NC(=O)c1cnccn1)B(O)O [Bortezomib] + Nc1ncn([C@H]2C[C@H](O)[C@@H](CO)O2)c(=O)n1 [Decitabine] (partner 2 µM)
How it was run: as §1

[1] = compound: CC1=CC(=NN1)NC2=CC(=NC(=N2)/C=C/C3=CC=CC=C3)N4CCN(CC4)C + Cc1nc(Nc2ncc(C(=O)Nc3c(C)cccc3Cl)s2)cc(N2CCN(CCO)CC2)n1 [Dasatinib] (partner 0.075 µM)
How it was run: as §1

Obatoclax + Foretinib = compound: COC1=CC(c2cc3ccccc3[nH]2)=N/C1=C\c1[nH]c(C)cc1C [Obatoclax] + COc1cc2c(Oc3ccc(NC(=O)C4(C(=O)Nc5ccc(F)cc5)CC4)cc3F)ccnc2cc1OCCCN1CCOCC1 [Foretinib] (partner 0.25 µM)
How it was run: as §1

| Cell Line | relative viability (Bortezomib + Navitoclax; first compound 0.0002 µM) | relative viability (Bortezomib + Navitoclax; first compound 0.000632 µM) | relative viability (Bortezomib + Navitoclax; first compound 0.002 µM) | relative viability (Bortezomib + Navitoclax; first compound 0.006325 µM) | relative viability (Bortezomib + Navitoclax; first compound 0.02 µM) | relative viability (Bortezomib + Decitabine; first compound 0.0002 µM) | relative viability (Bortezomib + Decitabine; first compound 0.000632 µM) | relative viability (Bortezomib + Decitabine; first compound 0.002 µM) | relative viability (Bortezomib + Decitabine; first compound 0.006325 µM) | relative viability (Bortezomib + Decitabine; first compound 0.02 µM) | relative viability ([1]; first compound 0.08 µM) | relative viability ([1]; first compound 0.253 µM) | relative viability ([1]; first compound 0.8 µM) | relative viability ([1]; first compound 2.53 µM) | relative viability ([1]; first compound 8 µM) | relative viability (Obatoclax + Foretinib; first compound 0.01 µM) | relative viability (Obatoclax + Foretinib; first compound 0.03162 µM) | relative viability (Obatoclax + Foretinib; first compound 0.1 µM) | relative viability (Obatoclax + Foretinib; first compound 0.3162 µM) | relative viability (Obatoclax + Foretinib; first compound 1 µM) |
| --- | --- | --- | --- | --- | --- | --- | --- | --- | --- | --- | --- | --- | --- | --- | --- | --- | --- | --- | --- | --- |
| NCI-H2023 | 0.967 | 0.994 | 0.936 | 0.17 | 0.0898 | 0.216 | 0.236 | 0.245 | 0.122 | 0.0571 | 0.575 | 0.588 | 0.555 | 0.0936 | 0.0621 | 0.944 | 0.841 | 0.804 | 0.804 | 0.316 |
| EBC-1 | 0.439 | 0.299 | 0.195 | 0.0921 | 0.104 | – | – | – | – | – | – | – | – | – | – | 0.102 | 0.112 | 0.119 | 0.119 | 0.113 |
| NCI-H1666 | 0.832 | 1.08 | 0.848 | 0.211 | 0.196 | 0.782 | 0.839 | 0.728 | 0.646 | 0.477 | 0.787 | 0.874 | 0.778 | 0.659 | 0.294 | 0.952 | 0.989 | 0.959 | 0.482 | 0.384 |
| NCI-H1975 | 1.05 | 1.05 | 0.315 | 0.136 | 0.133 | 0.411 | 0.371 | 0.176 | 0.126 | 0.115 | 0.356 | 0.394 | 0.325 | 0.124 | 0.061 | 0.973 | 1.02 | – | 0.854 | 0.296 |
| NCI-H1793 | 0.418 | 0.463 | 0.599 | 0.409 | 0.149 | 0.492 | – | 0.507 | 0.334 | 0.146 | 0.379 | 0.446 | 0.365 | 0.138 | 0.0977 | 0.602 | 0.743 | 0.758 | 0.609 | 0.675 |
| NCI-H1355 | 0.85 | 0.95 | 0.737 | 0.604 | 0.139 | 0.343 | 0.362 | 0.367 | 0.177 | 0.139 | 0.723 | 0.727 | 0.684 | 0.248 | 0.121 | 1.04 | 0.936 | 0.986 | 0.94 | 0.529 |
| SW 900 | – | – | – | – | – | 0.347 | 0.423 | 0.227 | 0.206 | 0.284 | 0.644 | 0.585 | 0.413 | 0.418 | 0.0713 | 0.895 | 0.743 | 0.759 | 0.536 | 0.738 |
| A549 | 1.14 | 1.22 | 1.07 | 0.0316 | 0.0335 | 0.294 | 0.205 | 0.339 | 0.201 | 0.248 | – | – | – | – | – | 0.958 | 0.947 | 0.979 | 0.959 | 0.764 |
| NCI-H2170 | 0.425 | 0.548 | 0.6 | 0.169 | 0.172 | 0.462 | 0.465 | 0.444 | 0.377 | 0.126 | 0.573 | 0.563 | 0.471 | 0.203 | 0.112 | 1 | 1.02 | 0.996 | 1.02 | 0.975 |
| EKVX | 0.95 | 1.03 | 0.978 | 0.44 | 0.0945 | 0.36 | 0.393 | 0.431 | 0.25 | 0.0809 | 0.55 | 0.579 | 0.603 | 0.499 | 0.151 | 0.911 | 0.76 | 0.427 | 0.752 | 1.09 |
| RERF-LC-KJ | 1.01 | 1.19 | 0.593 | 0.247 | 0.244 | 0.663 | 0.707 | 0.531 | 0.226 | 0.219 | 0.908 | 0.944 | 0.837 | 0.249 | 0.166 | 0.823 | 0.883 | 0.862 | 0.792 | 0.844 |
| NCI-H1755 | 0.975 | 0.979 | 0.917 | 0.269 | 0.165 | 0.699 | 0.716 | 0.734 | 0.452 | 0.237 | 0.465 | 0.466 | 0.425 | 0.253 | 0.14 | 0.913 | 0.937 | 0.886 | 0.908 | 0.961 |
| NCI-H661 | – | – | – | – | – | 0.553 | 0.553 | 0.529 | 0.395 | 0.204 | 0.824 | 0.808 | 0.853 | 0.243 | 0.237 | 0.977 | 1.03 | 1.05 | 0.936 | 0.763 |
| LOU-NH91 | 0.697 | 0.543 | 0.254 | 0.187 | 0.201 | 0.805 | 0.82 | 0.41 | 0.373 | 0.322 | 0.576 | 0.614 | 0.61 | 0.448 | 0.302 | 0.918 | 0.917 | 0.787 | 0.904 | 0.819 |
| LXF-289 | 0.936 | 0.942 | 0.955 | 0.0537 | 0.0449 | 0.364 | 0.384 | 0.394 | 0.196 | 0.112 | 0.258 | 0.26 | 0.187 | 0.0576 | 0.0234 | 0.91 | 0.988 | 1.05 | 0.932 | 1.02 |
| HCC-44 | 0.96 | 0.932 | 0.94 | 0.225 | 0.192 | 0.965 | 0.965 | 0.961 | 0.953 | 0.258 | – | – | – | – | – | – | – | – | – | – |
| HARA | 1.14 | 1.16 | 1.12 | 0.075 | 0.108 | 0.459 | 0.569 | 0.415 | 0.125 | 0.124 | 0.26 | 0.236 | 0.221 | 0.183 | 0.0802 | 0.966 | 0.93 | 0.91 | 0.935 | 1 |
